# Values joined by “and” are separate entries in the source; they are usually repeats but may differ in a detail not shown here. Identical values can stand only once. Where no end group is shown, it is not given here.
# B1: Recombinant His-tagged AtRALF1 (peptide, UniProt Q9SRY3 72-120, looked up)
# chain: ATTKYISYQSLKRNSVPCSRRGASYYNCQNGAQANPYSRGCSKIARCRS
# modifications: ends and bridges not checked; also: His-tagged
# notes: Rapid alkalinization factor 1 (AtRALF1), Arabidopsis thaliana; the active peptide (49 residues by the label RALF1(9–49)), cloned in pET-28b at NdeI/HindIII; printed molecular weight 7,631 Da; The printed mass of 7,631 Da would fit the 49-residue peptide with the His tag of pET-28b still on it (surmise); also called recombinant AtRALF1; R1
# B2: Recombinant His-tagged HA-BAK1-ECD (domain or fragment, Arabidopsis thaliana, UniProt Q94F62 26-225, looked up)
# chain: NAEGDALSALKNSLADPNKVLQSWDATLVTPCTWFHVTCNSDNSVTRVDLGNANLSGQLVMQLGQLPNLQYLELYSNNITGTIPEQLGNLTELVSLDLYLNNLSGPIPSTLGRLKKLRFLRLNNNSLSGEIPRSLTAVLTLQVLDLSNNPLTGDIPVNGSFSLFTPISFANTKLTPLPASPPPPISPTPPSPAGSNRITG
# notes: BRI1-associated receptor kinase 1 (BAK1), Arabidopsis thaliana; extracellular domain; printed molecular weight 25,654.04 Da; HA-BAK1-ECD amplified from the pGADT7 construct, moved to pDEST17; also called BAK1-ED; not shown: HA, N-terminal, kept
# How the values were obtained:
# [1] = test system: BAK1 gene; settings: BL hormone treatment, Arabidopsis plants; ref [29]; cited from earlier work
# Excerpt: It has been previously shown through microarray experiments that the treatment of Arabidopsis plants with AtRALF1 causes BAK1 gene induction by approximately 1.56-fold. Our data are consistent with that previous observation and add a new gene to the list of AtRALF1-inducible genes. […] The fact that AtRALF1 peptide and BL treatment both induce BAK1 gene expression provides further evidence that BAK1 ...
# [2] = test system: BAK1; assay: BAK1 phosphorylation assay, anti-phosphothreonine; assay type: in vivo, Arabidopsis thaliana; settings: pBAK1:BAK1-HA roots, 20 min; AtRALF1 1, 2, 10 μM; BL 0.1 μM
# Method: Transgenic plants pBAK1:BAK1-6xHA were grown in vertical plates for 10–15 days. The plants were treated with 0.1 μM BL, 2 μM RALF1(9–49), 1 μM, 2 μM or 10 μM AtRALF1 for 20 min. The roots were isolated, and the microsomal fractions were obtained as described above. The microsomal fractions were incubated with anti-HA beads (EZview Red Anti-HA Affinity Gel, Sigma) for 2 h at 4 °C to immunoprecipitate the BAK1 protein. The unbound materials were removed by washing 3 times. Proteins were separated by SDS/PAGE and further analyzed by protein blotting using anti-HA (Thermo Scientific), or anti-phosphothreonine (Novus Biologicals), or anti-phosphoserine (Novus Biologicals) antibodies.
# [3] = test system: Arabidopsis seedlings, primary root; assay: Root growth inhibition assay, vertical plates; assay type: in vivo, Arabidopsis thaliana; settings: bak1 mutants, 0 or 1 μM BL, 8 days
# [4] = test system: AtPRP3, AtHRGP2, CPD and DWF4 genes; settings: cited from earlier work
# Excerpt: AtRALF1-overexpressing plants are less sensitive to exogenous brassinosteroids (BRs). […] AtRALF1 also induces two cytochrome P450 monooxygenase genes related to the BR biosynthetic pathway: Constitutive Photomorphism and Dwarfism (CPD) and DWARF4 (DWF4). We exposed the bak1 mutants to the same concentration of AtRALF1 and evaluated the capacity to induce the AtPRP3, AtHRGP2, CPD and DWF4 genes. None of the AtRALF1-inducible genes were ...
# [5] = test system: cytosolic Ca^2+ in Arabidopsis seedlings; settings: BL; ref [38]; cited from earlier work
# [6] = test system: plants overexpressing the AtRALF1 gene; settings: plants overexpressing AtRALF1 treated with BL; ref [9]; cited from earlier work
# Excerpt: AtRALF1-overexpressing plants are less sensitive to exogenous brassinosteroids (BRs). […] The expansin A5 gene (AtEXPA5), which is involved in the regulation of cell ...
# [7] = test system: BAK1-GFP; assay: Co-immunoprecipitation with microsomal fraction of N. benthamiana leaves expressing BAK1-GFP; assay type: binding, Arabidopsis thaliana; settings: 600 nM peptide, 1 h, 4 °C, anti-GFP antibody
# Method: This assay was performed as previously described with some modifications. The BAK1 coding region was amplified from Arabidopsis genomic cDNA using standard PCR with the primers BAK1 Fw and BAK1 Rv (S1 Table). To generate the p35S-BAK1:GFP plasmid, the fragment was cloned into the pENTR D-TOPO vector and later transferred to the pk7FWG2 vector [56]. Leaves from N. benthamiana plants were agroinfiltrated with p19 vector alone and p19 co-expressed with p35S-BAK1:GFP, as previously described. After 3 days, leaves were homogenized in extraction buffer [300 mM sucrose, 100 mM Tris-HCl pH 7.5, 25 mM EDTA, 25 mM NaF, 1 mM Na2MoO4, 1 mM PMSF, 1 mM DTT and protease inhibitor cocktail (Roche), pH 6.2 adjusted] and centrifuged at 1,000 g for 10 min at 4°C, and the supernatant was then centrifuged at 100,000 g for 50 min at 4°C to precipitate the microsomal pellet. The pellet was resuspended in the extraction buffer plus 0.5% Triton-X and incubated with 600 nM recombinant AtRALF1 or 600 nM RALF1(I6A) for 1 h at 4°C. The complexes were incubated with anti-GFP antibody (Santa Cruz Biotechnology) and Sepharose Beads plus protein A (Life Technologies) overnight at 4°C. […] The AtRALF1/BAK1-GFP complex bound to the beads was eluted with denaturing in 10 μl of 1X loading buffer (NuPAGE LDS buffer) at 95°C for 8 min, then analyzed by SDS-PAGE. The proteins were detected as previously described.
# [8] = test system: Arabidopsis seedlings, primary root; assay: Root growth inhibition assay, liquid medium, 24-well plates; assay type: in vivo, Arabidopsis thaliana; settings: 10 μM, 2 days
# Method: (A) and (B) Arabidopsis seedlings (2 days old) were treated with 10 μM AtRALF1 or water (H20) for 2 days. The values are the mean ± SD of at least 25 seedlings. Triple asterisks indicate P < 0.01 (Student’s t test); ns, not significant. (C) Four-day-old seedlings were transferred to media containing different concentrations of AtRALF1, and the primary root length was measured after 8 days of treatment. The data represent the mean value ± SD of 30 seedlings. […] Representative Arabidopsis seedlings after 8 days of treatment with AtRALF1 are shown below. Seedlings were arranged on plates after the treatment for imaging. Scale bars, 1 cm. (D) Two-day-old seedlings were treated with 10 μM AtRALF1 or water for 2 days, and root cell length was measured after 2 days of treatment. Cells from the root endodermis in the differentiation zone were measured. The values are the mean ± SD of approximately 150 cells. Triple asterisks indicate P < 0.01 (Student’s t test); ns, not significant.
# Aliquots of 1 ml of medium containing seeds were distributed into 24-well plates. The peptides (10 μM) were added after 2 days, and the root length was measured 2 days after treatment. To maximize root growth, the seeds were germinated in vertical plates. […] The root length was measured 8 days after treatment unless stated otherwise. Control plants were grown under identical conditions in a peptide-free medium. Quantitative data were obtained as previously described. The experiments were repeated at least 3 times using independent biological replicates with similar results. The data from one representative experiment are shown. For cell length measurements, AtRALF1 peptide (10 μM) was added after 2 days of germination, and the cell length was measured after 2 days of treatment. The cell wall was stained with a 1 mg ml^-1 propidium iodide solution (Sigma) in the dark for 15 min and washed twice with water. Cells of the endodermis of the root differentiation zone were imaged and measured using confocal microscopy (Olympus FV1000). Approximately 30 plants from each genetic background and at least 5 cells per root were measured. The wavelengths for excitation and emission were 555 and 655 nm, respectively. Image processing was completed using the Olympus FluoView software.
# Arabidopsis seedlings (2-days-old) were treated with 10 μM AtRALF1 or water (H20) for 2 days. The values are the mean ± SD of at least 25 seedlings. Triple asterisks indicate P < 0.01 (Student’s t test); ns, not significant. (PDF) Click here for additional data file.
# Supplementary file pgen.1007053.s002.pdf: S2 Fig Loss-of-function bak1 mutants are sensitive to the inhibitory activity of AtRALF23/34 on root growth. Arabidopsis seedlings (2-day-old) were treated with 10 μM RALF1(9–49), RALF1(I6A), AtRALF1, AtRALF23 and AtRALF34 or water (H20) for 2 days. The values are the mean ± SD of at least 20 seedlings. […] (PDF) Click here for additional data file.
# [9] = test system: HA-BAK1-ECD; assay: Co-immunoprecipitation in vitro; assay type: binding, Arabidopsis thaliana; settings: 100 nM each protein, pH 6.3, overnight 4 °C, agarose anti-HA beads
# Method: The purified recombinant proteins AtRALF1 and HA-BAK1-ECD and the synthetic peptides RALF1(9–49) and RALF1(I6A) were combined in 200 μl of interaction buffer pH 6.3 (100 mM NaCl; 1 mM PMSF; 0.5%Triton X; 2.7 mM KCl; 8 mM NaH2PO4; 2 mM KH2PO4) overnight at 4 °C. A 100-nM concentration of each protein was used. This solution was incubated with agarose anti-HA beads (EZview Red Anti-HA Affinity Gel, Sigma) for 30 min at 4 °C to immunoprecipitate the proteins, washed 5 times with interaction buffer, eluted in 1X SDS sample buffer containing 10% β-mercaptoethanol and applied to an SDS-PAGE gel. The immunoprecipitated HA-BAK1-ECD and co-immunoprecipitated AtRALF1 were analyzed by protein blotting as described. The primary and secondary antibodies used to detect AtRALF1 were anti-AtRALF1 (1:10,000, Celula B, Immunology Laboratory, UFRGS, Brazil) and goat anti-rabbit HRP-conjugated secondary antibody (1: 10,000, BioRad), respectively.
# [10] = test system: fer4 mutant; settings: ref [10]; cited from earlier work
# Excerpt: Isothermal titration calorimetry has been used to estimate Kd values for plant ligand-receptor kinase pairs, IDA/ HAESA and AtRALF23/FERONIA are among them and our Kd values are consistent with these reported values. […] Previous studies have shown the possibility of additional sites for AtRALF1 binding. In cell suspension cultures of tomato, tobacco and alfalfa, the ^125I-azido-RALF peptide cross-linked to two p ...
# [11] = biological target: B2; assay: ITC; VP ITC; 0.7 mM BAK1-ECD in the syringe (28 injections of 10 μl) into 0.03 mM peptide in the 1.4 ml cell; 15 mM HEPES pH 6.8; 25 °C; three independent experiments; settings: both partners purified
# [12] = biological target: B1; assay: as above; settings: both partners purified
molecule,measurement,setting,value
"CC(C)[C@H](C)[C@@H](O)[C@H](O)[C@@H](C)[C@H]1CC[C@H]2[C@@H]3COC(=O)[C@H]4C[C@H](O)[C@H](O)C[C@]4(C)[C@H]3CC[C@]12C [BL, brassinolide, reference compound]",BAK1 gene induction,[1],promotes BAK1 gene induction in Arabidopsis plants
same,BAK1 phosphorylation in threonine residues,[2],increase resulting from the treatment of the seedlings with BL
same,sensitivity of root growth to BL,[3],Reduced sensitivity
same,AtRALF23 gene expression,"[4]; Arabidopsis seedlings, BL, ref [4],[19]",down-regulated
same,CPD and DWF4 gene expression,"[4]; BL treatment, ref [9]",down-regulated by BL treatment
same,AtEXPA5 expression,"[4]; roots of treated seedlings, ref [16]–[18]",induced by BL
same,"mobilization of Ca^2+, dependence on BAK1",[5],independent of BAK1
same,hypocotyl elongation,[6],a minor increase in hypocotyl elongation
same,number of lateral roots,[6],no change in the number of lateral roots
same,root length,[6],no increase in root length
"RALF1(I6A): inactive AtRALF1 peptide which has an Ile replaced by an Ala in the conserved YISY domain (ATTKYASYQSLKRNSVPCSRRGASYYNCQNGAQANPYSRGCSKIARCRS; ends and bridges not checked; cysteine pairing not given here; UniProt Q9SRY3 72-120, looked up, variant I6A)",co-immunoprecipitation with BAK1-GFP,[7],did not co-immunoprecipitate with BAK1-GFP
same,activity of negative control peptides on root growth,[8],inactive
same,co-immunoprecipitation with HA-BAK1-ECD,[9],did not co-immunoprecipitate with BAK1
"^125I-labeled AtRALF1: AtRALF1 radiolabeled with ^125I, earlier study [10] (ATTKYISYQSLKRNSVPCSRRGASYYNCQNGAQANPYSRGCSKIARCRS; ends and bridges not checked; also: radiolabeled with 125I; UniProt Q9SRY3 72-120, looked up)",reduction of specific binding of 125I-labeled AtRALF1,[10],approximately 40%
B1,Kd,[11],4.6 µM and 4.9 µM and 5.8 µM
B2,stoichiometry N,[12],1.5 and 0.5 and 1.27

# — article PMC5656322, “BAK1 is involved in AtRALF1-induced inhibition of root cell expansion” (PLoS Genetics, 2017)
